System: acetylcholine esterase (AChE)
Experiment: Electrochemical (CV) inhibition of AChE activity on AChE/ChO/POD/CNT/DEN(PtNP)s-loaded SPCGC electrode
Assay type: biochemical
Settings: for I x/Io: anodic peak current, 10 mM phosphate buffer pH 7.4 with ACh
Experimental: AChE, ChO and POD enzymes were adsorbed on CNT/DEN(PtNP)s-loaded SPCGC electrode. The aqueous solution containing AChE/ChO/POD was dropped on the CNT/DEN(PtNP)s-loaded SPCGC surface and the adsorption was allowed to occur for 24 hours. The AChE-ChO-POD-adsorbed CNT/DEN(PtNP)s-loaded (AChE/ChO/POD/CNT/DEN(PtNP)s-loaded) SPCGC DEP chip was stored at 4° C. till use.
Electrochemical detection of a DZN compound on the AChE/ChO/POD/CNT/DEN(PtNP)s-loaded SPCGC electrode was performed on a CV (a Hokuto-Denko HZ-3000) apparatus in the potential range of −0.6 to 1 V at a scan rate of 20 mVs^−1 in a phosphate buffer solution. All the measurements were carried out at room temperature in 2 cm^3 of a test solution, which has to cover the circular working electrode area of the sensors supported vertically during the CV measurement. The anodic oxidation peak at 0.06-0.1 V was used to evaluate the inhibition of AChE activity by DZN. The enzyme inhibition was calculated according to the following equation (Equation 1) (Dounin et al., Analytica Chimica Acta 2010, 669, 63-67): % inhibition=100(Io−Ix)/Io [Equation 1], wherein Io is the anodic peak current of oxidation at 0.06-0.1 V of a control sample in the absence of DZN, while Ix refers to the peak current of DZN-containing samples.
For the electrochemical detection of DZN compound, CNT/DEN(PtNP)s hybrids at M:D 0.4:1 was fabricated onto the SPCGC electrode. Then, an AChE/ChO/POD/CNT/DEN(PtNP)s-loaded SPCGC biosensor was developed by loading 10 mm^3 of 2.21 U of AChE, 4.3 U of ChO and 44.7 U of POD on the CNT/DEN(PtNP)s-loaded SPCGC electrode. The bioactivity of the AChE/ChO/POD/CNT/DEN(PtNP)s-loaded SPCGC biosensor was investigated by CV at room temperature.
The approach for determination of one (DZN) of organophosphate pesticides by this biosensor is based on the inhibition of AChE activity. In the absence of DZN, AChE hydrolyzes Ach to acetic acid and choline (Ch) (Lin et al., Electroanalysis, 2004, 16(1-2), 145-149):
The inhibition of AChE activity by DZN was determined by measuring the oxidation or reduction current of H2O2 which is correlated to the concentration of Ch produced by AChE.
This anodic oxidation peak is attributed to the oxidation of hydrogen peroxide (H2O2) generated from the enzymatic reaction of AChE and ChO. The peak potential of H2O2 oxidation by the present electrode was lower than by an AChE/ChO/CNT electrode (0.50 V) (Lin et al., Electroanalysis, 2004, 16(1-2), 145-149). […] Meanwhile, a very small reduction peak around −0.2 V was also observed at only the first CV scan. This peak is attributed to the reduction of the generated H2O2 by POD. […] Therefore, the inhibition of AChE by DZN can be determined by the decrease in the oxidation current at 0.09 V.
The obtained currents of anodic oxidation peak were utilized to evaluate the enzyme activity, […], and the inhibition value, (Io−Ix)/Io, where Io and Ix are current densities in ACh solutions without and with DZN.

CCOP(=S)(OCC)Oc1cc(C)nc(C(C)C)n1 [DZN, O,O-diethyl 0-2-isopropyl-6-methyl(pyrimidine-4-yl)phosphorothioate]
% Enzyme Activity (DZN 0.05 ppm): 78.6%
% Inhibition (DZN 0.05 ppm): 21.4%
[Io-Ix]/Io (DZN 0.05 ppm): 0.214
I x/Io (DZN 0.05 ppm): 0.785
% Enzyme Activity (DZN 0.1 ppm): 59.1%
% Inhibition (DZN 0.1 ppm): 40.9%
[Io-Ix]/Io (DZN 0.1 ppm): 0.409
I x/Io (DZN 0.1 ppm): 0.590
% Enzyme Activity (DZN 0.5 ppm): 52.5%
% Inhibition (DZN 0.5 ppm): 47.6%
[Io-Ix]/Io (DZN 0.5 ppm): 0.475
I x/Io (DZN 0.5 ppm): 0.524
% Enzyme Activity (DZN 1 ppm): 17.2%
% Inhibition (DZN 1 ppm): 82.8%
[Io-Ix]/Io (DZN 1 ppm): 0.828
I x/Io (DZN 1 ppm): 0.171
% Enzyme Activity (DZN 5 ppm): 23.2%
% Inhibition (DZN 5 ppm): 76.8%
[Io-Ix]/Io (DZN 5 ppm): 0.768
I x/Io (DZN 5 ppm): 0.231
% Enzyme Activity (DZN 10 ppm): 13.4%
% Inhibition (DZN 10 ppm): 86.6%
[Io-Ix]/Io (DZN 10 ppm): 0.866
I x/Io (DZN 10 ppm): 0.133
